Experimental data reported in patent US7524851B2 (Robert Bosch Gesellschaft fur Medizinische Forschung (RBMF), priority 2003, dated 2009).

What was measured:
Format in all cases: cell-based, human
CD4+ T cells = experiment: Apoptosis by Nicoletti staining and transmission electron microscopy; conditions: 5 days
Experimental: For FACS analysis, apoptotic cells were detected by staining with annexin V and propidium iodide using the Annexin V FITC Apoptosis Detection Kit I (PharMingen) (Atreya et al., Nat. Med. 6:583-588 (2000)). In brief, T cells were washed twice in PBS, and the pellet was resuspended in annexin V binding buffer (PharMingen) at a concentration of 10^6 cells per milliliter. Annexin V FITC and propidium iodide were added (5 ill of each per 10^5 cells). Samples were gently mixed and incubated for 15 minutes at room temperature in the dark before FACS analysis. To verify the results obtained with the annexin V/propidium iodide staining, analysis of T cells displaying DNA fragmentation was also determined by the Nicoletti technique, as described in (Nicoletti et al., J. Immunol. Methods 139:271-279 (1991)). 10^6 T cells were fixed in 70% ethanol, washed once in HBSS, resuspended in 1 ml of HBSS and 1 ml of phosphate citric acid buffer (0.2 mol/l Na2PO4 and 0.004 mol/l citric acid [pH 7.8]), and incubated at room temperature for 5 minutes. After centrifugation, cells were resuspended in 1 ml of HBSS containing 20 μg/ml propidium iodide and 10 U DNase-free RNase A and incubated at room temperature for 30 minutes. Finally, cells were analyzed on a FACScan flow cytometer. Because of the fragmentation of DNA, apoptotic cells appear as hypodiploid in the DNA histogram.

[1] = test system: primary CD4+ T lymphocytes; experiment: T cell vitality and clonal expansion (trypan blue)
Experimental: Analysis of T cell vitality and clonal expansion: To induce T cell expansion, purified T lymphocytes were stimulated with coated antibodies to CD3 (0.04 μg/ml), soluble antibodies to CD28 (1 μg/ml), and recombinant IL-2 (40 U/ml) for the indicated periods of time. […] Cell viability was assessed by trypan blue (Sigma-Aldrich) staining at the beginning and at the end of the cell culture. The clonal expansion of T cells during cell culture was calculated by the ratio between cell numbers at the beginning and at the end of the cell culture.

vav = vav protein expression (Western blot, immunocytochemistry)
Experimental: Western blots: Equal amounts of extract (30 μg) were added to 8 μl of electrophoresis sample buffer (Firma Roth; Karlsruhe, Germany). After boiling, the extracts were loaded on 15% SDS-PAGE gels and electrophoretically separated. Proteins were transferred to nitrocellulose membranes, and detection was performed with the ECL Western blotting analysis system (Amersham). […]
Immunocytochemical analysis: Immunocytochemistry was performed as described in Atreya et al., supra and Finotto et al., J. Exp. Med. 193:1247-1260 (2001)). […] Cells were rinsed with PBS, and nuclei were counterstained with Hoechst33342 blue for fluorescence (Molecular Probes; Burlingame, Calif., USA). Finally, cells were washed in PBS and analyzed with an Olympus Microscope. Six to ten high-power fields were finally analyzed in all patients per condition, and selected high-power fields were further analyzed by confocal laser microscopy.

Ras = Ras activation assay (GTP-bound Ras, Raf RBD pull-down); conditions: primary T cells
Experimental: Cell lysates were incubated with 10 μg/ml PAK-1 agarose (Rac assays) or 10 μg/mg Raf RBD agarose (Ras assay) for 60 minutes (Rac assays) or 30 minutes (Ras assays) at 4° C. Agarose beads were collected by centrifugation followed by denaturation, boiling of the samples, and SDS-PAGE analysis.

| Structure (SMILES) | number of apoptotic CD4+ T cells (CD4+ T cells) | clonal expansion of T cells ([1]; day 5) | expression of the guanosine exchange factor vav (vav) | activation of Ras (GTP-bound Ras) (Ras) | clonal expansion of T cells ([1]; earlier time points than day 5) |
| --- | --- | --- | --- | --- | --- |
| Sc1ncnc2nc[nH]c12 [6-MP, 6-mercaptopurine] | marked increase | suppresses clonal expansion | induced | fail to modulate |  |
| Cn1cnc([N+](=O)[O-])c1Sc1ncnc2nc[nH]c12 [azathioprine, Azathioprine] | marked increase | reduction in the clonal expansion | induced | virtually unaffected | no significant changes |
